Assay results taken from patent EP4810052A2, “HCRHR2 SELECTIVE POLYPEPTIDES” (Gubra A/S, priority 2023, dated 2026).
Where two headings read alike, the source gives them in different places. Starred links: 1 amine or outer side, 2 acyl side, 3 side chain; linkers in the order of their positions; H or OH if unused. Non-standard residues stand in square brackets, D forms with d. Residues, ends and D or L forms follow the SMILES beside them. Groups on a side chain read outwards from the residue. *: point of attachment. C20 diacid = O=C(O)CCCCCCCCCCCCCCCCCCC(=O)*; γGlu = O=C(O)[C@H](CCC(=O)[*:2])N[*:1]; NMeI = CC[C@H](C)[C@H](NC)C(=O)O; Nle = CCCC[C@H](N)C(=O)O; AEEA = NCCOCCOCC(=O)O; Aib = CC(C)(N)C(=O)O

What was measured:
[1] = pH 7.5
[2] = Thioflavin T fibril formation assay of purified peptides; assay type: physicochemical; set-up: key: Amyloid fibril formation detected by an increase in ThT fluorescence was denoted with "Yes"; samples without increasing ThT fluorescence hence not forming amyloid fibrils were denoted "No"
Experimental: Thioflavin T fibril formation assay: Peptides were dissolved as 267 µM in 50 mM phosphate buffer pH 7.5 for 2 h at room temperature on a rocking table. The samples were then divided into three replicates of 80 µl/well and mixed with 2 µl/well Thioflavin T (ThT)to a final concentration of 4 µM ThT in a black 384 well microplate with a clear bottom (Greiner #781096). The plate was inserted in a CLARIOstar Plus microplate reader (BMG Labtech) and fibril formation was measured as an increase in fluorescence emission at 480 nm (excitation at 450 nm) during 96 h at 40°C with cycles of 5 min rest and 5 min linearshaking at700 rpm.
Compounds were dissolved to 200 µM (ca 1.0 mg/ml) in 50 mM phosphate buffer with preparation and ThT assay performed as described in the "General procedure for determination of fibril formation of peptides." above. Furthermore, samples were adjusted to pH values as indicated below. Additional co-formulations of compounds with semaglutide were prepared by dissolving compounds to 200 µM in commercially available semaglutide drug product (Ozempic®); these co-formulations were adjusted to pH 7.4.

hCRHR1 = target: T1, hCRHR1 (Homo sapiens, UniProt P34998); test: HTRF cAMP assay, determination of hCRHR1 potency (peptide libraries 5 conc., purified peptides 11 conc.); assay type: cell-based
T1 sequence (P34998 24-415): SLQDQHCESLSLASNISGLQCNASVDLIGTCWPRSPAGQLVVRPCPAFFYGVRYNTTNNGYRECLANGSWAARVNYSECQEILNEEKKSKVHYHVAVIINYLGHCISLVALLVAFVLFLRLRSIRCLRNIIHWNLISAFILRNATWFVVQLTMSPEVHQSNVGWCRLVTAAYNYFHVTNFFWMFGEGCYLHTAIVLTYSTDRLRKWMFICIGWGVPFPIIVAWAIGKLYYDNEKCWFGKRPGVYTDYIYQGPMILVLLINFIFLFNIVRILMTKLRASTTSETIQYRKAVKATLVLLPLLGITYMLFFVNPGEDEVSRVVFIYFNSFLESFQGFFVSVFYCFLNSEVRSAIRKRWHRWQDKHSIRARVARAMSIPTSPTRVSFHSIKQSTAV
In short: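 Cellular cAMP was read by time-resolved FRET between d2-labelled cAMP and cryptate anti-cAMP antibody. The cells were freshly thawed suspension CHO-K1 cells stably expressing human CRHR1.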

[3] = Chemical stability of purified peptides (RP-UHPLC main peak purity loss); assay type: physicochemical; details: for Chemical stability at pH 7.5 after 28 days at 40°C (% degradation): pH 7.5, 28 days
Experimental: Chemical stability was tested at a concentration of approximately of 1.0 mg/ml peptide in the following vehicles: 50 mM phosphate buffer pH 7.5. Dissolved samples were incubated for at least 2 h at room temperature on a rocking table. The main peak purity at time zero (T0) was determined using reversed phase chromatography. The samples were incubated at 40°C for 14 days (T14) and 28 days (T28). The samples were analyzed with reversed phase chromatography and size exclusion chromatography.
Reversed Phase chromatography was performed on a Thermo Dionex Ultimate UHPLC system with UV detection at 215 nm) and equipped with a Kinetex column (1.7 µm, C8, 100 Å, 150 x 2.1 mm (00F-4499-AN)). Analysis was performed by gradient elution with buffer A (0.1% TFA in 95:5 H2O:acetonitrile) and buffer B (0.1% TFA in 5:95 H2O: acetonitrile) at a column temperature of 50 °C (gradient used 25-55%B over 40 min. Flowrate was 0.5 mL/min. The main peak purity was determined from the integrated chromatogram as the area under the main peak relative to the total peak area. The purity loss was calculated as the difference between the T0 and T14 time point and/or as the difference between the T0 and T28 time point.
The chemical stability of selected peptides was evaluated at varying pH's at 40° C over 28 days. Samples were prepared and analysed as described in procedure with the addition of pH adjusting samples to the targets indicated below. As a comparator,r commercially available semaglutide drug product (Ozempic®, Novo Nordisk) was included in the sample set.

hCRHR2 = target: T2, hCRHR2 (Homo sapiens, UniProt Q13324); test: HTRF cAMP assay, determination of hCRHR2 potency (peptide libraries 5 conc., purified peptides 11 conc.); assay type: cell-based
T2 sequence (Q13324 1-411): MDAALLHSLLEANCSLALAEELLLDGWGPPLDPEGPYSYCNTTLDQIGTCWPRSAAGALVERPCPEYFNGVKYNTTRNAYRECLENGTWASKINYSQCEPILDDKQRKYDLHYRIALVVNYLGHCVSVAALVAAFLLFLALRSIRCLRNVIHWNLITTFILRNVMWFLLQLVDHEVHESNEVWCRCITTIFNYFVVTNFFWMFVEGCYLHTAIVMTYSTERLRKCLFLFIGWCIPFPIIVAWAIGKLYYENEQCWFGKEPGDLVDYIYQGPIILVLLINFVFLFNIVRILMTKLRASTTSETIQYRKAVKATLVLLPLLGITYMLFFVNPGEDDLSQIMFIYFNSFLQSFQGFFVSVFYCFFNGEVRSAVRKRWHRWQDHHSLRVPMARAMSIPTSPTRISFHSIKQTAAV
In short: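 EC50 derived by variable-slope sigmoid regression of FRET-based cAMP data; cellular cAMP displaced d2-labelled tracer from cryptate anti-cAMP antibody. Stable human CRHR2 CHO-K1 suspension cells, revived from frozen stocks just before the run.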

[4] = Table 5, purified peptides, read-out: hCRHR1 EC50
[5] = Table 5, purified peptides, read-out: hCRHR2 EC50

| Solubility pH 7.5, target conc. =10 mg/mL (measured mg/mL) [1] [mg/mL] | Fibrillation (pH 7.5) ([2]; pH 7.5) | EC50 (hCRHR1; [4]) [nM] | EC50 (hCRHR1; library peptides, matched molecular pairs L vs Nle in position X^38, read-out: Potency hCRHR1 pEC50 (converted)) [nM] | Chemical stability at pH 7.5 after 14 days at 40°C (% degradation) ([3]; pH 7.5, 14 days, 40°C) [%] | Chemical stability at pH 7.5 after 28 days at 40°C (% degradation) ([3]; 40°C) [%] | Selectivity ratio (hCRHR1/ hCRHR2) (hCRHR2; Table 5) | EC50 (hCRHR2; [5]) [nM] | EC50 (hCRHR2; library peptides, matched molecular pairs L vs Nle in position X^38, read-out: Potency hCRHR2 pEC50 (converted)) [nM] | Fibrillation (pH 7.5) ([2]; pH 7.5, ThT assay) | EC50 (hCRHR1; purified peptides, CHO-K1 cells stably expressing hCRHR1, cAMP HTRF, read-out: hCRHR1 EC50) [nM] | Chemical stability at pH 7.5 after 14 days at 40°C (% degradation) ([3]; pH 7.5, 40°C, 14 days, first value of cell) | Selectivity ratio (hCRHR1/ hCRHR2) (hCRHR2; hCRHR1-EC50/hCRHR2-EC50) | EC50 (hCRHR2; purified peptides, CHO-K1 cells stably expressing hCRHR2, cAMP HTRF, read-out: hCRHR2 EC50) [nM] | SMILES |
| --- | --- | --- | --- | --- | --- | --- | --- | --- | --- | --- | --- | --- | --- | --- |
| 9.5 | No | > 5000 | 7940 | -3.2 | -10 | >9091 | 0.55 | 0.316 | – | – | – | – | – | CCCC[C@H](NC(=O)[C@@H](NC(=O)[C@H](CCC(=O)O)NC(=O)[C@H](C)NC(=O)[C@H](CC(N)=O)NC(=O)[C@@H](NC(=O)[C@H](CCCCNC(=O)COCCOCCNC(=O)COCCOCCNC(=O)CC[C@H](NC(=O)CC[C@H](NC(=O)CCCCCCCCCCCCCCCCCCC(=O)O)C(=O)O)C(=O)O)NC(=O)[C@H](C)NC(=O)[C@H](CCC(N)=O)NC(=O)[C@H](CCC(=O)O)NC(=O)[C@H](CCCNC(=N)N)NC(=O)[C@H](C)NC(=O)[C@H](C)NC(=O)[C@H](CCCNC(=N)N)NC(=O)[C@H](C)NC(=O)[C@H](CCCNC(=N)N)NC(=O)[C@H](C)NC(=O)[C@H](CCC(N)=O)NC(=O)[C@H](CO)NC(=O)[C@H](CC(C)C)NC(=O)[C@H](CC(C)C)NC(=O)[C@@H](NC(=O)[C@H](CCC(N)=O)NC(=O)[C@H](CC(C)C)NC(=O)[C@H](CC(C)C)NC(=O)CNC(=O)[C@@H](NC(=O)[C@@H]1CCCN1C(=O)[C@@H](NC(=O)[C@H](CC(=O)O)NC(=O)[C@H](CC(C)C)NC(=O)[C@H](CO)NC(=O)[C@H](CC(C)C)NC(=O)[C@@H](NC(=O)[C@@H](N)[C@@H](C)CC)C(C)C)C(C)C)[C@@H](C)CC)[C@@H](C)CC)[C@@H](C)O)[C@@H](C)CC)C(=O)N[C@@H](C)C(=O)N[C@@H](CCC(=O)O)C(=O)N[C@H](C(N)=O)C(C)C [compound 83] (H-IVLSLDVPIGLLQILLSQARARAAREQAK([AEEA-AEEA-γGlu-γGlu-C20 diacid])TNAEI[Nle]AEV-NH2) |
| 10 | No | > 5000 | – | -1 | -3 | >7463 | 0.67 | – | – | – | – | – | – | CCCC[C@H](NC(=O)[C@@H](NC(=O)[C@H](CCC(=O)O)NC(=O)[C@H](C)NC(=O)[C@H](CC(N)=O)NC(=O)C(C)(C)NC(=O)[C@H](CCCCNC(=O)COCCOCCNC(=O)COCCOCCNC(=O)CC[C@H](NC(=O)CC[C@H](NC(=O)CCCCCCCCCCCCCCCCCCC(=O)O)C(=O)O)C(=O)O)NC(=O)[C@H](C)NC(=O)[C@H](CCC(N)=O)NC(=O)[C@H](CCC(=O)O)NC(=O)[C@H](CCCNC(=N)N)NC(=O)[C@H](C)NC(=O)[C@H](C)NC(=O)[C@H](CCCNC(=N)N)NC(=O)[C@H](C)NC(=O)[C@H](CCCNC(=N)N)NC(=O)[C@H](C)NC(=O)[C@H](CCC(N)=O)NC(=O)[C@H](CCC(=O)O)NC(=O)[C@H](CC(C)C)NC(=O)[C@H](CC(C)C)NC(=O)[C@@H](NC(=O)[C@H](CCC(N)=O)NC(=O)[C@H](CC(C)C)NC(=O)[C@H](CC(C)C)NC(=O)CNC(=O)[C@@H](NC(=O)[C@@H]1CCCN1C(=O)[C@@H](NC(=O)[C@H](CC(=O)O)NC(=O)[C@H](CC(C)C)NC(=O)[C@H](CO)NC(=O)[C@H](CC(C)C)NC(=O)[C@@H](NC(=O)[C@@H](N)[C@@H](C)CC)C(C)C)C(C)C)[C@@H](C)CC)[C@@H](C)CC)[C@@H](C)CC)C(=O)N[C@@H](C)C(=O)N[C@@H](CCC(=O)O)C(=O)N[C@H](C(N)=O)[C@@H](C)CC [compound 236] (H-IVLSLDVPIGLLQILLEQARARAAREQAK([AEEA-AEEA-γGlu-γGlu-C20 diacid])[Aib]NAEI[Nle]AEI-NH2) |
| 11 | – | – | – | – | – | – | – | – | No | > 5000 | -2.2 / ND % | >3571 | 1.4 | CC[C@H](C)[C@H](NC)C(=O)N[C@H](C(=O)N[C@@H](CC(C)C)C(=O)N[C@@H](CO)C(=O)N[C@@H](CC(C)C)C(=O)N[C@@H](CC(=O)O)C(=O)N[C@H](C(=O)N1CCC[C@H]1C(=O)N[C@H](C(=O)NCC(=O)N[C@@H](CC(C)C)C(=O)N[C@@H](CC(C)C)C(=O)N[C@@H](CCC(N)=O)C(=O)N[C@H](C(=O)N[C@@H](CC(C)C)C(=O)N[C@@H](CC(C)C)C(=O)N[C@@H](CCC(=O)O)C(=O)N[C@@H](CCC(N)=O)C(=O)N[C@@H](C)C(=O)N[C@@H](CCCNC(=N)N)C(=O)N[C@@H](C)C(=O)N[C@@H](CCCNC(=N)N)C(=O)N[C@@H](C)C(=O)N[C@@H](C)C(=O)N[C@@H](CCCNC(=N)N)C(=O)N[C@@H](CCC(=O)O)C(=O)N[C@@H](CCC(N)=O)C(=O)N[C@@H](C)C(=O)N[C@@H](CCCCNC(=O)COCCOCCNC(=O)COCCOCCNC(=O)CC[C@H](NC(=O)CC[C@H](NC(=O)CCCCCCCCCCCCCCCCCCC(=O)O)C(=O)O)C(=O)O)C(=O)N[C@@H](CCC(=O)O)C(=O)N[C@@H](CC(N)=O)C(=O)N[C@@H](C)C(=O)N[C@@H](CCC(=O)O)C(=O)N[C@H](C(=O)N[C@@H](CC(C)C)C(=O)N[C@@H](C)C(=O)N[C@@H](CCC(=O)O)C(=O)N[C@H](C(N)=O)C(C)C)[C@@H](C)CC)[C@@H](C)CC)[C@@H](C)CC)C(C)C)C(C)C [SEQ ID NO: 18] (H-[NMeI]VLSLDVPIGLLQILLEQARARAAREQAK([AEEA-AEEA-γGlu-γGlu-C20 diacid])ENAEILAEV-NH2) |
